The source of these data is PubChem BioAssay (NCI).

Test systems include MALME-3M melanoma; HCT-116 colon; NCI-H522 lung; PC-3 prostate; SF-268 CNS; SK-OV-3 ovarian; HCC-2998 colon; DU-145 prostate; HOP-62 NSCLC; SK-MEL-5 melanoma.
Common to all, as to experiment: inhibition of tumour cell growth, NCI panel, 48 h

Each structure is given as a SMILES string. Where “and” joins values, the source holds several entries; their conditions need not be identical. Equal entries are not always repeated.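 These data come from cells grown in 96-well plates and exposed to compound for 48 hours at five concentrations. Here, GI50 denotes the concentration required for 50% inhibition of growth. TGI denotes the concentration required for complete inhibition of growth.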

Consider `COc1cc(C2c3cc4c(cc3C(OC(=O)C[n+]3ccccc3)C3COC(=O)C23)OCO4)cc(OC)c1OC` (configuration not stated), for which the GI50 with MALME-3M melanoma was > 100 µM; in the assay with HCT-116 colon, < 0.0181 µM; in the assay on NCI-H522 lung, < 0.01 µM; in the assay on PC-3 prostate it was < 0.0187 µM; in the assay with SF-268 CNS it was < 0.0208 µM; with SK-OV-3 ovarian it was < 0.0207 µM. Also, the GI50 with HCC-2998 colon is < 0.0174 µM; in the assay with DU-145 prostate it was < 0.0184 µM; in the assay on HOP-62 NSCLC, < 0.0259 µM; with SK-MEL-5 melanoma, < 0.01 µM. Moreover, the TGI was > 100 µM in the assay on MALME-3M melanoma; > 100 µM in the assay on HCT-116 colon; < 0.01 µM with NCI-H522 lung; > 100 µM in the assay with PC-3 prostate; > 100 µM in the assay on SF-268 CNS; > 100 µM in the assay on SK-OV-3 ovarian. In addition, the TGI in the assay on HCC-2998 colon was > 20.9 µM; with DU-145 prostate, > 100 µM; with HOP-62 NSCLC, > 100 µM; in the assay with SK-MEL-5 melanoma, < 0.01 µM.
Turning to `CN1CCN(Cc2ccc(NC(=O)c3cncc(C#Cc4cnc(N)c5cccnc45)c3)cc2C(F)(F)F)CC1`, the GI50 is 0.0558 µM in the assay on MALME-3M melanoma; 0.224 µM in the assay on HCT-116 colon; 0.29 µM with NCI-H522 lung; 0.665 µM in the assay on PC-3 prostate; 0.466 µM with SF-268 CNS; 0.203 µM with SK-OV-3 ovarian. Besides, the GI50 in the assay with HCC-2998 colon is 0.484 µM; with DU-145 prostate it was 0.309 µM; with HOP-62 NSCLC, 0.498 µM; in the assay on SK-MEL-5 melanoma it was 0.571 µM. Further, the TGI with MALME-3M melanoma was 0.273 µM; in the assay with HCT-116 colon, 6.6 µM; in the assay with NCI-H522 lung, > 50 µM; in the assay with PC-3 prostate, > 50 µM; in the assay on SF-268 CNS it was > 50 µM; in the assay with SK-OV-3 ovarian it was > 50 µM. For the same compound, the TGI in the assay with HCC-2998 colon is > 50 µM; in the assay on DU-145 prostate it was > 50 µM; with HOP-62 NSCLC, > 19.1 µM; in the assay with SK-MEL-5 melanoma, 2.13 µM.
Regarding `Nc1ccccc1C(=O)CCC1C(=O)NC(=S)NC1=O`, the TGI in the assay with MALME-3M melanoma, with HCT-116 colon, with NCI-H522 lung, in the assay on PC-3 prostate, with SF-268 CNS and in the assay on SK-OV-3 ovarian was > 100 µM in each case. The TGI in the assay with HCC-2998 colon, in the assay with DU-145 prostate, with HOP-62 NSCLC and in the assay on SK-MEL-5 melanoma was > 100 µM in each case.
Turning to `Oc1c(Cl)cc(Cl)c2ccc(Cn3cc(-c4ccc(C(F)(F)F)cc4)nn3)nc12`, the GI50 was 1.63 µM in the assay on MALME-3M melanoma; 0.692 µM with HCT-116 colon; 1.42 µM with NCI-H522 lung; 3 µM in the assay with PC-3 prostate; 4.64 µM in the assay with SF-268 CNS; 17.7 µM with SK-OV-3 ovarian. The GI50 with HCC-2998 colon was 5.86 µM; in the assay with DU-145 prostate it was 1.7 µM; with HOP-62 NSCLC, 16.4 µM; with SK-MEL-5 melanoma it was 3.07 µM. In addition, the TGI in the assay on MALME-3M melanoma was 3.13 µM; in the assay with HCT-116 colon it was 2.57 µM; with NCI-H522 lung, 3.79 µM; in the assay on PC-3 prostate, 11.1 µM; in the assay with SF-268 CNS, 20.1 µM; with SK-OV-3 ovarian, 33 µM. Besides, the TGI turned out to be 20.3 µM in the assay on HCC-2998 colon, 3.33 µM in the assay on DU-145 prostate, 35.2 µM in the assay on HOP-62 NSCLC and 11.4 µM in the assay on SK-MEL-5 melanoma.
For the compound `Clc1ccccc1-c1nnc2c(Cc3ccccc3)nc3ccccc3n12`, the GI50 in the assay with MALME-3M melanoma is 33 µM; in the assay on HCT-116 colon, 3.79 µM; in the assay on NCI-H522 lung, 29.1 µM; with PC-3 prostate, 4.66 µM; in the assay with SF-268 CNS, 7.15 µM; in the assay on SK-OV-3 ovarian, 22.5 µM. Further, the GI50 in the assay on HCC-2998 colon was 59.9 µM; in the assay with DU-145 prostate, 55.1 µM; in the assay on HOP-62 NSCLC it was 9.92 µM; with SK-MEL-5 melanoma, 3.67 µM. For the same compound, the TGI with MALME-3M melanoma, with HCT-116 colon, in the assay on NCI-H522 lung, in the assay on PC-3 prostate, with SF-268 CNS and in the assay with SK-OV-3 ovarian was > 100 µM in each case. The TGI with HCC-2998 colon, in the assay with DU-145 prostate, in the assay with HOP-62 NSCLC and in the assay with SK-MEL-5 melanoma was > 100 µM each time.
As for `CC(=O)c1cc(C(=O)c2ccc3c(c2)Sc2ccccc2N3)n2ccccc12`, the GI50 with MALME-3M melanoma was 0.00487 µM; in the assay with HCT-116 colon it was 0.00398 µM and 0.00332 µM; in the assay on NCI-H522 lung, 0.00177 µM; in the assay on PC-3 prostate it was 0.00453 µM and 0.00332 µM; in the assay on SK-OV-3 ovarian, 0.00438 µM and 0.00332 µM; in the assay with HCC-2998 colon, 0.0199 µM and 0.0295 µM. Further, the GI50 with DU-145 prostate is 0.00514 µM and 0.00332 µM; in the assay on HOP-62 NSCLC, 0.00399 µM and 0.00332 µM; in the assay on SK-MEL-5 melanoma, 0.00526 µM and 0.00332 µM. Also, the TGI in the assay with NCI-H522 lung was 0.00517 µM; with PC-3 prostate, > 33.2 µM; with SF-268 CNS, > 33.2 µM; in the assay on SK-OV-3 ovarian, 21.5 µM; in the assay on HCC-2998 colon, > 33.2 µM; in the assay with DU-145 prostate, > 33.2 µM. In addition, the TGI in the assay on HOP-62 NSCLC was > 33.2 µM; in the assay with SK-MEL-5 melanoma, 0.818 µM and 0.742 µM.
On to `CO[C@H]1CC(O[C@@H]2/C(C)=C/C[C@@H]3C[C@@H](C[C@]4(CC[C@H](C)[C@@H](C5CCCCC5)O4)O3)OC(=O)[C@@H]3C=C(C)/C(=N/O)[C@H]4OC/C(=C\C=C\[C@@H]2C)[C@]43O)O[C@@H](C)C1O` (some centres not stated), for which the GI50 in the assay on MALME-3M melanoma is 1.17 µM; in the assay with HCT-116 colon, 0.704 µM; with NCI-H522 lung, 1.12 µM; in the assay with PC-3 prostate, 0.704 µM; with SF-268 CNS it was 0.982 µM; in the assay with SK-OV-3 ovarian it was 1.17 µM. Further, the GI50 with HCC-2998 colon was 0.831 µM; in the assay with DU-145 prostate it was 0.833 µM; in the assay with HOP-62 NSCLC, 0.887 µM; with SK-MEL-5 melanoma, 1 µM. Also, the TGI in the assay on MALME-3M melanoma came to 3.15 µM; in the assay on HCT-116 colon, 1.4 µM; in the assay with NCI-H522 lung, 3.13 µM; in the assay with PC-3 prostate, 1.84 µM; in the assay with SF-268 CNS, 2.45 µM; in the assay on SK-OV-3 ovarian, 2.86 µM. For the same compound, the TGI was 1.57 µM with HCC-2998 colon, 1.62 µM in the assay with DU-145 prostate, 1.73 µM in the assay with HOP-62 NSCLC and 2.29 µM in the assay with SK-MEL-5 melanoma.
